This is an account of results in PMC8512764, “New 4-Aminoproline-Based Small Molecule Cyclopeptidomimetics as Potential Modulators of α4β1 Integrin” (Molecules, 2021).

Each structure is given as a SMILES string. Where two headings read alike, the source gives them in different places. *1 amine or outer side, *2 acyl side, *3 side chain or, on linkers, in order; H or OH if unused. Where a SMILES comes first, the peptide text is derived from it. Bridges are numbered along the chain shown (N, C = ends). [ ]: non-standard residue; d: D form. The star is where a group is joined. ξ: configuration not given here. ξPro(4ξ-NH2) = O=C(C1CC(N[*:3])CN1[*:1])[*:2]; X1 = O=C(Cc1ccc(N[*:1])cc1)[*:2]; NH(2-Me-phenyl) = Cc1ccccc1N*; CO = O=C([*:1])[*:2]

For series [1], the target named is T1, α4β1 integrin (Homo sapiens, UniProt P05556+P13612).
T1 construct: Jurkat cells endogenously express α4β1 integrin; host or cells: Jurkat E6.1 cells
Briefly: Jurkat cell adhesion assay on VCAM-1-coated wells. Format: cell-based. Conditions: Jurkat cell adhesion to VCAM-1 (2 μg/mL); means ± SD, n = 3; tested 0.1 nM to 100 μM; read-out: EC50/IC50 (IC50 for compounds reducing cell adhesion). How it is done:
To investigate the ability of the newly synthesized cyclopeptidomimetics 12–18 to recognize and bind α4β1 integrin, cell adhesion assays were performed on VCAM-1. The compounds were evaluated for their ability to interfere with α4β1 integrin-mediated cell adhesion by using Jurkat cells, which are known to constitutively express this integrin [46, 48, 49, 50, 51].
Jurkat E6.1 cells were purchased from American Type Culture Collection (ATCC, Rockville, MD, USA) and were routinely cultured in RPMI-1640 (LifeTechnologies, Milan, Italy) supplemented with 10% FBS (fetal bovine serum, Life Technologies) and 2 mM glutamine. Cells were kept at 37 °C under 5% CO2 humidified atmosphere. Jurkat cells are a widely used cell model to study potential agonist or antagonist ligands able to modulate integrin-mediated cell adhesion. Jurkat cells endogenously express α4β1 integrin [13].
The assays were performed as previously described. In brief, black 96 well plates were coated with VCAM-1 (2 μg/mL) overnight at 4 °C; then, non-specific hydrophobic binding sites were blocked with 1% BSA (bovine serum albumin, Sigma-Aldrich) in HBSS (Life Technologies) for 30 min at 37 °C. Jurkat cells were labelled with CellTracker green CMFDA (12.5 μM, Life Technolgies) and pre-incubated with various concentration (10^−4–10^−10 M) of each new cyclopeptidomimetic or with the vehicle (DMSO) for 30 min at 37 °C. Afterwards, Jurkat cells were plated on VCAM-1-coated wells and incubated for 30 min at 37 °C. Then, wells were washed three times with 1% BSA in HBSS and Jurkat cells were lysed with 0.5% Triton X-100 in PBS for 30 min at 4 °C. Green fluorescence (Ex485 nm/Em 535 nm) was measured in an EnSpire Multimode Plate Reader (PerkinElmer, Waltham, MA, USA). Experiments were performed in quadruplicate and repeated at least three times. The number of adherent cells was determined by comparison with a standard curve made with a known concentration of labelled Jurkat cells. Data analysis and IC50/EC50 values were calculated using GraphPad Prism 6.0 (GraphPad Software, San Diego, CA, USA).
The number of adherent cells was determined as described above.

For series [2] the following is noted: amide bond, HATU/HOAt/collidine, DCM/DMF 15:1, 25.0 °C.

T1 sequence (P13612 34-1032): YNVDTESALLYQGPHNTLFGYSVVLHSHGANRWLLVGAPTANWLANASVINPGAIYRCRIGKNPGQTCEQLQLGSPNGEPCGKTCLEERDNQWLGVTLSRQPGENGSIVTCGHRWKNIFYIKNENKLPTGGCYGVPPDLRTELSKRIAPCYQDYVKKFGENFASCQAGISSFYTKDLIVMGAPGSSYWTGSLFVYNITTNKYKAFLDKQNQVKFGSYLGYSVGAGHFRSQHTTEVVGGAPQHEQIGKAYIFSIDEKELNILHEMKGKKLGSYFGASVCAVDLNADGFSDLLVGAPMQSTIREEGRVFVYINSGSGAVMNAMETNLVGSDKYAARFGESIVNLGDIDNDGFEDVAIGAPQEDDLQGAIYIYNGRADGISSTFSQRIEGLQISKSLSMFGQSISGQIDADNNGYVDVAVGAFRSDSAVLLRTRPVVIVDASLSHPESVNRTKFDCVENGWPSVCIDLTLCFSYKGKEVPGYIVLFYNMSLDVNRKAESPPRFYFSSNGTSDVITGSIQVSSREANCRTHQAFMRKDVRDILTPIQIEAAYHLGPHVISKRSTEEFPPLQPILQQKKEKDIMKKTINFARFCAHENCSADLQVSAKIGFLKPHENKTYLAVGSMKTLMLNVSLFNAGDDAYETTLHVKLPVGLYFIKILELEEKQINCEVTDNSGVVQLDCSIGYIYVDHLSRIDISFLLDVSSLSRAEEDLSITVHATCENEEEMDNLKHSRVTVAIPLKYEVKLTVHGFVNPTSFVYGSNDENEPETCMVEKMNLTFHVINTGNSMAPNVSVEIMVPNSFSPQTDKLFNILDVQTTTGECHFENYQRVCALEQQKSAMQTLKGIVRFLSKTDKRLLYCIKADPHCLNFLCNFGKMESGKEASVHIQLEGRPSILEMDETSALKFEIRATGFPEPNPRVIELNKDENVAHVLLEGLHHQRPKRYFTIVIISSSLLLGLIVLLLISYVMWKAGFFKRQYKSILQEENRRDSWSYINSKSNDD
T1 sequence (P05556 21-798): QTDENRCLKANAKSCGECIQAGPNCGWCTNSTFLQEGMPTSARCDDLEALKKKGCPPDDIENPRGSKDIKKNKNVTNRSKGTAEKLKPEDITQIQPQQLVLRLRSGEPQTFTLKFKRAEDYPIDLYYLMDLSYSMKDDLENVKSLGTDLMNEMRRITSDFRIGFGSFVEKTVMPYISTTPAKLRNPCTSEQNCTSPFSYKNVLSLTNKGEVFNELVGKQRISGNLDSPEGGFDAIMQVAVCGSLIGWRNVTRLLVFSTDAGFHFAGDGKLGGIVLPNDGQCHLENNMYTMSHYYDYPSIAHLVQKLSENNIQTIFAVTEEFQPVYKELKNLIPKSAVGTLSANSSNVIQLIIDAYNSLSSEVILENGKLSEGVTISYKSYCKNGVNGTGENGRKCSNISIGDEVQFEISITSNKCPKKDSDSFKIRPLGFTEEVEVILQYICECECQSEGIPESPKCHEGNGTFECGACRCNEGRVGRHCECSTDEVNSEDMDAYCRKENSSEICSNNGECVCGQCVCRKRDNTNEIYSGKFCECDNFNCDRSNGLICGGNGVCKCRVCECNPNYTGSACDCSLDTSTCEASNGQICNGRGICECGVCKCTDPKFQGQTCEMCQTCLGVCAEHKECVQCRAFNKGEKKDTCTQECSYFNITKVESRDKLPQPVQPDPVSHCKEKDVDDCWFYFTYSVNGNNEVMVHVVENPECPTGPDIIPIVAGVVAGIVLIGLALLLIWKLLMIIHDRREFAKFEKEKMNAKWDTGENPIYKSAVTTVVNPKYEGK

In the case of `Cc1ccccc1NC(=O)Nc1ccc(CC(=O)N2CC3CC2C(=O)NC(CC(C)C)C(=O)NC(CCC(=O)O)C(=O)NC(C(C)C)C(=O)NCC(=O)N3)cc1` (stereo not drawn) [Compound 13, c[(MPUPA)Amp-Leu-Glu-Val-Gly]] ({NH(2-Me-phenyl)-CO}-[X1][ξPro(4ξ-NH2)]LEVG; lactam 2-C; configuration not given here), the IC50 in series [1] was greater than 100 µM. For the compound `Cc1ccccc1NC(=O)Nc1ccc(CC(=O)N2C[C@@H]3C[C@H]2C(=O)N[C@@H](CC(C)C)C(=O)N[C@@H](CCC(=O)OC(C)(C)C)C(=O)N[C@@H](C(C)C)C(=O)N3)cc1` [H-Val-Amp(MPUPA)-Leu-Glu(tBu)-OH], the ring closure, isolated yield in series [2] (from H-Val-Amp(MPUPA)-Leu-Glu(tBu)-OH, 14-membered ring, 0.76 mM) is 65%. Take `Cc1ccccc1NC(=O)Nc1ccc(CC(=O)N2CC3CC2C(=O)NC(CC(C)C)C(=O)NC(CC(=O)O)C(=O)NC(C(C)C)C(=O)N3)cc1` (stereo not drawn) [Compound 14, c[(MPUPA)Amp-Leu-Asp-Val]] ({NH(2-Me-phenyl)-CO}-[X1][ξPro(4ξ-NH2)]LDV; lactam 2-C; configuration not given here): in series [1], the IC50 was greater than 100 µM. Still for that read-out and setting: for `Cc1ccccc1NC(=O)Nc1ccc(CC(=O)N2CC3CC2C(=O)NC(CC(C)C)C(=O)NC(CCC(=O)O)C(=O)NC(C(C)C)C(=O)N3)cc1` (stereo not drawn) [Compound 15, c[(MPUPA)Amp-Leu-Glu-Val]] ({NH(2-Me-phenyl)-CO}-[X1][ξPro(4ξ-NH2)]LEV; lactam 2-C; configuration not given here) the value was greater than 100 µM.

In series [2] (from H-Val-Gly-Amp(MPUPA)-Leu-Asp(tBu)-OH, 17-membered ring, 0.47 mM), `Cc1ccccc1NC(=O)Nc1ccc(CC(=O)N2C[C@@H]3C[C@H]2C(=O)N[C@@H](CC(C)C)C(=O)N[C@@H](CC(=O)OC(C)(C)C)C(=O)N[C@@H](C(C)C)C(=O)NCC(=O)N3)cc1` [H-Val-Gly-Amp(MPUPA)-Leu-Asp(tBu)-OH] showed a ring closure, isolated yield of 88%. With `Cc1ccccc1NC(=O)Nc1ccc(CC(=O)N2CC3CC2C(=O)NC(C(C)C)C(=O)NC(CCC(=O)O)C(=O)NC(CC(C)C)C(=O)N3)cc1` (stereo not drawn) [Compound 17, c[(MPUPA)Amp-Val-Glu-Leu]] ({NH(2-Me-phenyl)-CO}-[X1][ξPro(4ξ-NH2)]VEL; lactam 2-C; configuration not given here), the IC50 in series [1] was greater than 100 µM. Take `Cc1ccccc1NC(=O)Nc1ccc(CC(=O)N2CC3CC2C(=O)NC(CCCNC(=N)N)C(=O)NCC(=O)NC(CC(=O)O)C(=O)N3)cc1` (stereo not drawn) [Compound 18, c[(MPUPA)Amp-Arg-Gly-Asp]] ({NH(2-Me-phenyl)-CO}-[X1][ξPro(4ξ-NH2)]RGD; lactam 2-C; configuration not given here): the IC50 in series [1] was greater than 100 µM. The compound `Cc1ccccc1NC(=O)Nc1ccc(CC(=O)N2C[C@@H]3C[C@H]2C(=O)N[C@@H](C(C)C)C(=O)N[C@@H](CC(=O)OC(C)(C)C)C(=O)N[C@@H](CC(C)C)C(=O)N3)cc1` [H-Leu-Amp(MPUPA)-Val-Asp(tBu)-OH] had a ring closure, isolated yield in series [2] (from H-Leu-Amp(MPUPA)-Val-Asp(tBu)-OH, 14-membered ring, 0.78 mM) of 73%. `Cc1ccccc1NC(=O)Nc1ccc(CC(=O)N2C[C@@H]3C[C@H]2C(=O)N[C@@H](C(C)C)C(=O)N[C@@H](CCC(=O)OC(C)(C)C)C(=O)N[C@@H](CC(C)C)C(=O)N3)cc1` [H-Leu-Amp(MPUPA)-Val-Glu(tBu)-OH] registered a ring closure, isolated yield in series [2] (from H-Leu-Amp(MPUPA)-Val-Glu(tBu)-OH, 14-membered ring, 0.74 mM) of 73%. Compound `Cc1ccccc1NC(=O)Nc1ccc(CC(=O)N2C[C@@H]3C[C@H]2C(=O)N[C@@H](CC(C)C)C(=O)N[C@@H](CC(=O)OC(C)(C)C)C(=O)N[C@@H](C(C)C)C(=O)N3)cc1` [H-Val-Amp(MPUPA)-Leu-Asp(tBu)-OH] yielded a ring closure, isolated yield in series [2] (from H-Val-Amp(MPUPA)-Leu-Asp(tBu)-OH, 14-membered ring, 0.53 mM) of 69%. Consider `Cc1ccccc1NC(=O)Nc1ccc(CC(=O)N2CC3CC2C(=O)NC(CC(C)C)C(=O)NC(CC(=O)O)C(=O)NC(C(C)C)C(=O)NCC(=O)N3)cc1` (stereo not drawn) [Compound 12, c[(MPUPA)Amp-Leu-Asp-Val-Gly]] ({NH(2-Me-phenyl)-CO}-[X1][ξPro(4ξ-NH2)]LDVG; lactam 2-C; configuration not given here), for which, in series [1], the IC50 is greater than 100 µM.
